Test results taken from patent US4138589A, “Substituted isophthalamic acids” (Mallinckrodt, Inc., priority 1977, dated 1979).
Several values for one entry are separate records, joined by “and”; a condition that tells them apart may be missing. Equal values may be shown once. Where a name gives a salt, the structure may show the parent alone. Read-outs that look alike come from different tables or passages of the source. Blank lines part the entries; values can stand above or below the compound they belong to.

Tests used:
[1] = Acute Intravenous Toxicity Studies in Mice; assay type: in vivo; settings: mouse, in vivo, iv, meglumine salt solution, 28.27% iodine, lateral tail vein, 1 ml/min, seven day observation; read-out: LD50 I.V. (Mice)
Procedure: (§1) Satisfactory intravenous urograms are obtained when any of the preparations described in Examples 28-32 is administered to dogs at a dosage of 350 mg. I/kg. Toxicity evaluations by three different techniques were carried out on solutions of the meglumine salts of three 5-acetamido-N-[poly(hydroxyalkyl)alkyl]2,4,6-triiodoisophthalamic acids of the invention. The techniques utilized are outlined below.
(§2) Swiss Albino mice (Charles River) were dosed in the lateral tail vein with solutions of the iodinated compound containing 28.27% of iodine, injected at the rate of 1 ml/min. […] The LD50 values were calculated by the method of Litchfield and Wilcoxon (J. of Pharmac. and Exptl. Therap. 96: 99-113, 1949).

mice [2] = test: Intracerebral Toxicity in Mice; assay type: in vivo, Swiss Albino mice (Charles River); settings: meglumine salt solution, seven day observation
Procedure: as §1
Swiss Albino mice (Charles River) were used. Fixed volumes of solutions of various concentrations of the iodinated compounds were injected intracerebrally via a 27 gauge needle, (1/4 inch length) according to the method of Haley, et al. (Br. J. of Pharmac. 12:12-15, 1957). The animals were observed immediately after injections and daily throughout a seven day observation period. The LD50 values were calculated by the method of Litchfield and Wilcoxon (J. of Pharmac. and Exptl. Therap. 96:99-113, (1949).

rats = test: Intracisternal Toxicity in Rats; assay type: in vivo, Sprague Dawley (Carworth) rats; settings: meglumine salt solution, two day observation
Procedure: as §1
Sprague Dawley (Carworth) rats were used. The method used was a variation of the procedure outlined by Melartin et al. (Invest. Rad. 5:13-21, 1970). After dosing, the animals were housed individually, and observed for immediate reactions and periodically for a two day observation period. The LD50 values were calculated according to the method of Litchfield and Wilcoxon, (J. of Pharmac. and Exptl. Therap. 96:99-115, 1949).

Water solubility = assay type: physicochemical; settings: for solubility: water
[3] = found by V. H. Wallingford; cited from earlier work
[4] = prior art; cited from earlier work
mice [5] = test: Acute Intravenous Toxicity Studies in Mice; assay type: in vivo; settings: meglumine salt solution, 28.27% iodine, lateral tail vein, 1 ml/min, seven day observation; 10080 min
Procedure: as §1, §2

[6] = temperature not stated, read-out: solubility

Compound: CC(=O)Nc1c(I)c(C(=O)O)c(I)c(C(=O)NCCO)c1I [5-acetamido-2,4,6-triiodo-N-(2-hydroxyethyl)-isophthalamicacid, reference compound]
LD50 at 168 h [1]: 5810 mg/kg | LD50 Intracerebral (Mice) (mice [2]): 174 mg. contained iodine/kg. anima | LD50 Intracisternal (Rats) (rats): 49 mg. contained iodine/kg. anima

solubility (Water solubility; sodium salt, temperature not stated, read-out: water solubility): ~800 mg/mL
Compound: Nc1c(I)c(C(=O)O)c(I)c(C(=O)NC(CO)(CO)CO)c1I [sodium salt of 5-amino-N-[tris-(hydroxymethyl)methyl]-2,4,6-triiodoisophthalamic acid]

solubility (Water solubility; [6]): ~930 mg/mL
Compound: CC(CO)(CO)NC(=O)c1c(I)c(N)c(I)c(C(=O)O)c1I [sodium salt of Example 9]

Compound: CC(=O)Nc1c(I)cc(I)c(C(=O)[O-])c1I.[Na+]
water solubility (in words) [3]: unexpectedly high | toxicity (in words) [4]: unexpectedly low

Compound: CC(=O)Nc1c(I)c(NC(C)=O)c(I)c(C(=O)O)c1I [diatrizoic acid, 3,5-diacetamido-2,4,6-triiodobenzoic acid]
toxicity (in words) [4]: still further reduced toxicity as compared with acetrizoic acid

Compound: CC(=O)Nc1c(I)c(C(=O)O)c(I)c(C(=O)NC(C)(CO)CO)c1I [Example 11, 5-Acetamido-N-[2-(1,3-dihydroxy-2-methyl)-propyl]-2,4,6-triiodoisophthalamic Acid, Sodium Salt]
solubility (Water solubility; [6]): ~820 mg/mL

Compound: CC(=O)Nc1c(I)c(C(=O)O)c(I)c(C(=O)NC(CO)(CO)CO)c1I [Example 7, meglumine salt of 5-acetamido-N-[tris(hydroxymethyl)methyl]-2,4,6-triiodoisophthalamic acid]
solubility (Water solubility; [6]): > 600 mg/mL

Compound: CC(=O)Nc1c(I)c(C(=O)O)c(I)c(C(=O)NC(C)(COC(C)=O)COC(C)=O)c1I [Example 23, Sodium 5-acetamido-N-[(1,3-diacetoxy-2-methyl)-2-propyl]-2,4,6-triiodoisophthalamate]
crystallization of aqueous solution on standing (Water solubility; 102.5% w/v solution, room temperature): No crystallization occurred | solubility (Water solubility; [6]): > 1000 mg/mL

Compound: CNC(=O)c1c(I)c(NC(C)=O)c(I)c(C(=O)O)c1I [Iothalamic Acid, 5-acetamido-2,4,6-triiodo-N-methylisophthalamic acid, reference compound]
LD50 at 168 h [1]: 5740 mg/kg | LD50 Intracerebral (Mice) (mice [2]): 280 mg. contained iodine/kg. anima | LD50 Intracisternal (Rats) (rats): 86 mg. contained iodine/kg. anima

Compound: CC(=O)Nc1c(I)c(C(=O)O)c(I)c(C(=O)NC(C)(CO)CO)c1I [Example 10, 5-Acetamido-N-[2-(1,3-dihydroxy-2-methyl) Propyl]-2,4,6-triiodoisophthalamic Acid]
LD50 at 168 h [1]: 4650 mg/kg | LD50 Intracerebral (Mice) (mice [2]): 790 mg. contained iodine/kg. anima | LD50 Intracisternal (Rats) (rats): 242 mg. contained iodine/kg. anima

Compound: COCC(=O)Nc1c(I)c(C(=O)O)c(I)c(C(=O)NC(CO)(CO)CO)c1I [Example 26(d), 2,4,6-Triiodo-5-methoxyacetamido-N-[tris(hydroxymethyl)methyl]isophthalamic Acid]
LD50 Intracerebral (Mice) (mice [2]): ~650 mg. contained iodine/kg. anima | LD50 Intracisternal (Rats) (rats): ~150 mg. contained iodine/kg. anima

Compound: CC(=O)Nc1c(I)c(C(=O)O)c(I)c(C(=O)NC(CO)(CO)CO)c1I [Examples 4(A) and 5, 5-Acetamido-N-[tris(hydroxymethyl)methyl]-2,4,6-triiodoisophthalamic Acid]
LD50 at 168 h [1]: 6150 mg/kg | LD50 I.V. (Mice) (mice [5]): 6200 mg. contained iodine/kg. anima | LD50 Intracerebral (Mice) (mice [2]): 700 mg. contained iodine/kg. anima and 638 mg. contained iodine/kg. anima | LD50 Intracisternal (Rats) (rats): 151 mg. contained iodine/kg. anima

solubility (Water solubility; sodium salt powder, read-out: solubility in water): ≥ 1000 mg/mL
Compound: CC(=O)Nc1c(I)c(C(=O)[O-])c(I)c(C(=O)NC(COC(C)=O)(COC(C)=O)COC(C)=O)c1I.[Na+]

Compound: COCC(=O)Nc1c(I)c(C(=O)[O-])c(I)c(C(=O)NC(CO)(CO)CO)c1I.[Na+]
solubility (Water solubility; sodium salt, 25° C., read-out: solubility in water): ~674 mg/mL
